# Results as given in patent US20070270462A1, “8-hydroxyquinoline compounds for treating a polyglutamine (polyQ)-expansion disease” (priority 2005, published 2007).
# Assays:
# [1] = test system: R6/2 mice; assay: Lifespan (survival) of R6/2 mice; format: in vivo, mouse; conditions: oral CQ 30 mg/kg/day
# Experimental: A colony of transgenic mice strain R6/2 that is heterozygous for htt exon1 (containing 145 CAG repeats) was maintained, with founders originating and available from The Jackson Laboratory (Bar Harbor, Me., USA). Male transgenic R6/2 mice were bred with background strain (B6CBAFI/J) females. Genotyping was done according to Hockly et al, Brain Res Bull 61, 469-479, 2003. CQ in water was orally administered to mice at 30 mg/kg/day starting at 3 weeks of age and continued until the mice were deceased or sacrificed for tissues. Littermate R6/2 mice were gavaged with water vehicle alone. At the end of CQ treatment mice were anesthetized and transcardially perfused with PBS followed by 4% v/v paraformaldehyde. Blood glucose levels were determined after at least 8 hrs of fasting in 11-week old mice (n=6 for wild-type, n=4 for vehicle-treated R6/2, n=6 for CQ-treated R6/2 littermates) using a 2300 STAT Plus glucose analyzer (YSI, Yellowsonte, Ohio, USA). Fasting blood insulin levels in animals fasted for 8 hrs were measured using an Ultra Sensitive Rat Insulin ELISA Kit (Crystal Chem, Inc., Downers Grove, Ill., USA) according to manufacturer's instructions. […]
# [2] = test system: YAC72 mice; format: in vivo
# Source text: Lower dosages need to be investigated to determine if such doses improve the effect. […] Moreover, since the drug is given as a single daily dose in a water suspension, it is possible that the window of time in which the blood levels are therapeutic may be small, perhaps only a few hours a day. To address these issues, it is proposed to use the R6/2 short term model for a dose-response study and then examine the effects of treatment on the longer term, milder YAC72 model. YAC72 animals carry a portion of a yeast artificial chromosome (YAC) bearing a full-length human htt gene (including the promoter) that is modified with a 72 CAG repeat expansion in exon 1. […]
# CQ is delivered blended into food pellets with vitamin B12 supplementation. […] In addition, it is determined what is the average rate of consumption and fluctuations in consumption rate through the course of the day. These parameters are measured periodically in test subjects as well, to allow adjustment of dosing for body weight and food intake. […] Animals are evaluated for a variety of parameters including clasping, rotarod performance, body weight, and survival, and animals are sacrificed at 12 weeks for western and immunohistochemical analysis of huntingtin fragment accumulation and striatal atrophy. […]
compound,measurement,setting,value
"Oc1c(I)cc(Cl)c2cccnc12 [CQ, 5-chloro-7-iodo-8-hydroxy-quinoline]",average lifespan,[1],92 days
same,increase in longevity over the littermate control group,[1],20%
same,behavioral and pathologic features,"[2]; YAC72 mice, chronic CQ with B12 supplementation",significantly mitigate the behavioral and pathologic features
same,tolerability of chronic CQ administration,"[2]; mouse, in vivo",well tolerated
